{"source": "patent US10646565B2", "about": "“Treatment of alzheimer'S disease (AD) with an aluminum salt” (AFFIRIS AG, priority 2014, dated 2020)", "key": {"[1]": {"test_system": "patients with early AD", "assay": "AFF006 clinical trial: adverse event summary of local reactions", "format": "in vivo, human", "experimental": "AFF006 was conducted as a randomized, placebo-controlled, parallel group, double-blind, multi-center phase II study and assessed the clinical and immunological activity as well as the safety and tolerability of repeated s.c. administrations of i.a. aluminium (different doses) in patients with early AD, as defined in the protocol. It was performed in a total of 6 countries: Austria, France, Germany, Slovakia, Czech Republic and Croatia.\nThe clinical trial comprised 10 regular outpatient visits and 6 telephone interviews. Up to four weeks before start of treatment, a screening visit (Visit 1) was performed to ensure suitability of the patients for the clinical trial and to establish the patients' baseline characteristics. Following screening, eligible patients were randomly allocated to the treatment groups. After randomization at week 0, patients received 6 injections with either 1 or 2 mg aluminium. Injections were applied s.c. by the investigator at weeks 0, 4, 8, 12, 40 and 65 (Visit 2, 3, 4, 5, 7 and 9).\nAt Visits 2, 3, 4, 5, 6, 7 and 9 possible local and systemic reactions to the vaccine and vital signs (blood pressure, heart rate, respiratory rate and body temperature) were assessed. In addition, a physical and neurological examination was performed. Efficacy parameters were assessed at Visits 1, 2, 3, 5, 6, 7, 8, 9, 10. The final visit (Visit 10) was performed twelve weeks after the last administration of study drug (Visit 9). An early discontinuation visit (EDV) was performed when a patient discontinued from the clinical trial.\nDuring the study Visits 2, 3, 4, 5, 7 and 9 the patient received study drug by the investigator, in total: six injections over a 65-week treatment period. Injections were applied to the external surface of the upper arm, approximately 8-10 cm above the elbow. Prerequisite regarding the actual site was the presence of an intact regional lymph node station. If the draining lymph node stations of both upper arms were not intact, injection was placed into the thigh close to the inguinal lymph nodes. Two alternating injection sites (e.g. left and right upper arm, left upper arm and left thigh) were used throughout the 6 injections.\nInjections were applied to the subcutaneous tissue (s.c.). Special care was taken to avoid […] application by careful aspiration before each injection. All administrations were performed at the trial site.\nSafety evaluations included the following:\nadverse events (AEs) and serious adverse events (SAEs) (number of patients who withdrew due to AEs; reason for withdrawal)"}, "[2]": {"test_system": "patients with early AD", "assay": "AFF006 clinical trial: adapted ADAS-cog, adapted ADCS-ADL and Composite score", "format": "in vivo, human", "from_the_text": "The present invention provides for the first time an AD treatment that is disease modifying. The effectiveness of the treatment according to the present invention is proven by the parameters required by the drug authorisation authorities, especially the EMEA and the US-FDA. For example, the EMEA guideline for AD treatment requires primary endpoints reflecting the cognitive and the functional domain. Accordingly, a combined (Composite) score is used for the clinical assessment of the present invention. This composite score combines two established scores, one for the cognitive function (ADAS-cog (Alzheimer's Disease Assessment Scale-cognitive subscale)) and one for the functional ability (ADCS-ADL (Alzheimer's Disease Co-operative Study—Activities of Daily Living Inventory)). The adapted ADAS-cog combines items that assess cognitive function. The adapted ADCS-ADL includes items that are sensitive to functional ability. […]\nCombined composite according to the present invention: =1.67*Word recall+1.35*Orientation+1.42*Word Recognition+0.55*Recall Instructions+0.81*Spoken Language+1.01*Word Finding+5.42*ONB+0.15*VPAL+0.19*Category Fluency+0.28*Belongings+0.35*Shopping+0.23*Hobbies+0.38*Beverage+0.37*Meal+0.23*Current Events+0.26*TV+0.33*Keeping Appointments+0.37*Travel+0.33*Alone+0.35*Appliance+0.49*Clothes+0.36*Read+0.62*Telephone+0.33*Writing\nThe primary efficacy variables are the change from baseline (CFB) in cognition as measured by an adapted ADAS-cog, CFB in function as measured by an adapted ADCS-ADL and a combination of CFB in cognition and function as measured by a combined composite:\nADAS-cog and other items included in the adapted ADAS-cog were measured at Visits 1, 2, 3, 5, 6, 7, 8, 9 and 10 or EDV. ADCS-ADL were measured at Visits 2, 5, 6, 7, 8, 9 and 10 or EDV. Items that contributing to the combined primary outcome were measured at Visits 2, 5, 6, 7, 8, 9 and 10 or EDV.\nThe primary efficacy outcomes all range from 0 to 100. […] Before a composite was calculated, contributing items that are scored in the opposite direction were reversed. […]"}, "[3]": {"test_system": "amyloid deposits", "assay": "Cerebral amyloid load by immunofluorescence (mAb 3A5) in Tg2576 mice", "format": "in vivo", "conditions": "6 monthly s.c. injections, sacrificed at 14 months of age"}}, "note": "Entries after “also recorded” stand apart in the source; their conditions may differ."}
{"substance": "aluminium oxyhydroxide", "values": [{"measurement": "Musculoskeletal and Connective Tissue Disorders: Pain in Extremity: events", "setting": "[1]; 1 mg s.c., N = 48", "value": 0}, {"measurement": "Musculoskeletal and Connective Tissue Disorders: Pain in Extremity: subjects %", "setting": "[1]; 1 mg s.c., N = 48", "value": 0.0, "unit": "%"}, {"measurement": "Musculoskeletal and Connective Tissue Disorders: Pain in Extremity: subjects n", "setting": "[1]; 1 mg s.c., N = 48", "value": 0}, {"measurement": "Vascular Disorders: Haematoma: subjects n", "setting": "[1]; 1 mg s.c., N = 48", "value": 0}, {"measurement": "Musculoskeletal and Connective Tissue Disorders: Pain in Extremity: events", "setting": "[1]; 2 mg s.c., N = 51", "value": 1}, {"measurement": "Musculoskeletal and Connective Tissue Disorders: Pain in Extremity: subjects n", "setting": "[1]; 2 mg s.c., N = 51", "value": 1}, {"measurement": "Vascular Disorders: Haematoma: subjects n", "setting": "[1]; 2 mg s.c., N = 51", "value": 0}, {"measurement": "parameters informing on the progression of the disease (change in Composite score)", "setting": "[2]; 2 mg group vs 1 mg group, all patients, FIG. 1", "value": "compares favourably"}, {"measurement": "Adapted ADAS-cog: disease progression", "setting": "[2]; 2 mg group, over 18 months, FIG. 3", "value": "Slowing of disease progression"}, {"measurement": "effect on disease progression (Composite score) in mild population", "setting": "[2]; mild population (baseline MMSE score of 24 and higher), 2 mg vs 1 mg, FIG. 2", "value": "most pronounced in the cohort of patients in earlier disease stages"}, {"measurement": "cerebral amyloid load (relative brain area covered by amyloid deposits)", "setting": "[3]; IF-staining mAb 3A5, FIG. 8, listed as Alum", "value": "did not significantly alter amyloid deposition; also recorded: slight but insignificant reduction in Aβ deposition"}, {"measurement": "cerebral amyloid load (relative brain area covered by amyloid deposits)", "setting": "[3]; IF-staining mAb 3A5, FIG. 8, listed as aluminium-oxyhydroxide", "value": "without significantly changing cerebral Aβ levels"}]}
